Consider one compound from patent US20220401408A1, “COMPOSITIONS AND METHODS FOR RESCUING RETINAL AND CHOROIDAL STRUCTURE AND FUNCTION” (AUCKLAND UNISERVICES LIMITED, priority 2019, published 2022).

Series [1] relates to GFAP, Iba-1, Connexin43 (retinal inflammation markers). The experiment in a line: Immunohistochemical labelling of GFAP, Iba-1 and Connexin43 in retina of light damaged rats. It is filed as in vivo, Sprague Dawley (SD) rats. The procedure: Retina Light Damage Model of Dry Age-Related Macular Degeneration—The intense light damage model was prepared and carried out as described in previous studies. Mat Nor N, Guo C X, Rupenthal ID, Chen Y S, Green C R, Acosta M L. Sustained Connexin43 Mimetic Peptide Release From Loaded Nanoparticles Reduces Retinal and Choroidal Photodamage. Invest Ophthalmol Vis Sci. 2018; 59:3682-93; Guo C X, Mat Nor M N, Danesh-Meyer H V, Vessey K A, Fletcher E L, O'Carroll S J, et al. Connexin43 Mimetic Peptide Improves Retinal Function and Reduces Inflammation in a Light-Damaged Albino Rat Model. Invest Ophthalmol Vis Sci. 2016; 57:3961-73; Guo C X, Tran H, Green C R, Danesh-Meyer H V, Acosta M L. Gap junction proteins in the light-damaged albino rat. Mol Vis. 2014; 20:670-82; Noell W K, Walker V S, Kang B S, Berman S. Retinal damage by light in rats. Invest Ophthalmol. 1966; 5:450-73. The light damage rat model was selected as it allows direct comparison with this and other drugs. Kim Y, Griffin J M, Nor M N M, Zhang J, Freestone P S, Danesh-Meyer H V, et al. Tonabersat Prevents Inflammatory Damage in the Central Nervous System by Blocking Connexin43 Hemichannels. Neurotherapeutics. 2017; 14:1148-65; Mat Nor N, Guo C X, Rupenthal ID, Chen Y S, Green C R, Acosta M L, supra; Guo C X, Mat Nor M N, Danesh-Meyer H V, Vessey K A, Fletcher E L, O'Carroll S J, et al., supra. […] All experimental procedures were approved by the University of Auckland Animal Ethics Committee, approval No. 001462 and comply with the Association for Research in Vision and Ophthalmology (ARVO) statement for the use of animals in eye research. Six to eight-week old albino Sprague Dawley (SD) rats (200-250 g; male or female) were used. Adult SD rats were exposed to continuous bright light for 24 hours, consistently starting at 9:00 am to minimize possible time-of-day variability. Light exposure was to two animals at a time to prevent rats from taking cover using each other as a shield. The LD protocol and intervention was repeated until the number of individuals for each dose group was obtained (n=7 per group). The light luminance was 2700 lux, generated using fluorescent lamps (Philips Master TLD 18W/965; Koninklijke Philips Electronics N.V., China) directly above the animal cages. The lamps were cool and emitted broadband light, from 380 to 760 nm wavelength, with the average intensity at the top of the cage being 120 W/m2. Animals were free to move within the cage with access to food and water ad libidum. Baseline electroretinography (ERG) readings and optical coherence tomography (OCT) images were collected prior to the light damage. After light exposure, animals were returned to normal light-dark cycle conditions (12 hours light, 174 lux and 12 hours darkness, <62 lux) for 24 hours, 1 week or 2 weeks (and for one group 3 months).
Tonabersat treatment of light damaged rats—LD rats were randomly assigned to low, middle or high dose of tonabersat (n=7 per group). The mixture of tonabersat in peanut butter was prepared fresh for each experiment. Three oral tonabersat doses were tested (n=7 per group) with follow up to 2 weeks post-injury, and the highest dose group then split with three animals taken for histological analysis, and four animals followed to 3 months post-injury. There was a ten-animal vehicle only control group. The group of rats that were kept for 3 months were maintained in separate cages for drug or vehicle-treated animals, but were kept under the same light conditions. Tonabersat was fed to animals in peanut butter at 0.26 mg/kg (on average 0.08 mg delivered, estimated circulating concentration 10 μM), 0.8 mg/kg (average of 0.24 mg delivered; 30 μM circulating) or 2.4 mg/kg (on average 0.72 mg delivered; 90 μM circulating) following consideration of previous unsuccessful human trial dosing levels. Silberstein S D. Tonabersat, a novel gap-junction modulator for the prevention of migraine. Cephalalgia. […]

Series [2] can be described thus: Body weight of hyperglycemic rats. It is filed as in vivo, SD rats (spontaneously hyperglycemic strain). To be noted: 0.28 mg/kg once daily 14 days; week 8. An excerpt: Hyperglycemic Rat Diabetic Retinopathy Model—A spontaneously hyperglycemic strain of SD rats, which developed clinical signs of diabetic retinopathy within 4 weeks of birth were identified and isolated within the Vernon Jansen Animal Research Unit, Faculty of Medical and Health Sciences at the University of Auckland. The identification of these rats presenting with hyperglycemia and microaneurysms provided an opportunity to treat a complex, chronic disease model and assess the treatment effect based upon objective, measurable endpoints, despite lacking precise information on the etiology of the disease. Inbreeding was carried out over three generations and eyes were screened for abnormalities between 4-8 weeks of age. […]
Ten rats per group were the selected (10 normal SD and 10 hyperglycemic) grown to 5 weeks of age and assessed using OCT and ERG. […] All animals were assessed again using ERG and OCT at 8 weeks of age before euthanizing animals and removing the eyes for immunohistochemical analysis. […] In summary, normal SD and hyperglycemic rats were analyzed with OCT and ERG at 5 weeks of age; the hyperglycemic rats were then split into two groups and fed the vehicle or tonabersat for 14 days during weeks 6 and 7 of age. At week 8, animals were again assessed with ERG and OCT and tissues collected for immunohistochemical analysis. […]

[3] abbreviates: all tonabersat treated groups, p<0.001.

For `CC(=O)c1ccc2c(c1)[C@H](NC(=O)c1ccc(F)c(Cl)c1)[C@H](O)C(C)(C)O2` [tonabersat, N-[(3S,4S)-6-acetyl-3-hydroxy-2,2-dimethyl-3,4-dihydrochromen-4-yl]-3-chloro-4-fluorobenzamide], the Iba-1 reactivity result in series [1] (0.26 mg/kg) is reported as “slightly higher level”. For the same compound, the GFAP labelling entry in series [1] (0.26 mg/kg, significantly less than vehicle) was “slight increase”. Further, the “GFAP immunoreactivity in the retina compared to vehicle” value in series [1] (0.8 mg/kg) is reported as “did not increase”. For the same compound, the “GFAP immunoreactivity in the retina compared to vehicle” value in series [1] (2.4 mg/kg) is “did not increase”. The “Connexin43 immunoreactivity in the retina compared to vehicle” value in series [1] (all three tonabersat doses) is “less”. In series [1] (setting [3]), the “Connexin43 level, image quantification vs vehicle controls” value was “significantly less”; the “GFAP level, image quantification vs vehicle controls” value was “significantly less”; the “Iba-1 level, image quantification vs vehicle controls” value is reported as “significantly less”. Besides, in series [1] (drug treated groups (all three doses)), the “Iba-1 immunolabelled cells in inner plexiform layer compared to vehicle” value was “less active”. Besides, the “body weight, treated vs untreated hyperglycemic rats” value in series [2] is reported as “no difference”.
